Measurements reported in patent US9302993B2, “8-hydroxy quinoline derivatives” (PRANA BIOTECHNOLOGY LIMITED, priority 2002, dated 2016).
Like-named read-outs stand apart in the source and are kept apart here.

Tests used:
[1] = tested on: Aβ in extract of tissue from post mortem human AD brain; experiment: Human brain amyloid solubilisation assay (Assay 9, BAS); assay type: biochemical
Description: Assay 9. Human Brain Amyloid Solubilisation Assay
This assay was performed in order to assess the ability of a test compound to mobilise Aβ from the insoluble to the soluble phase of an extract of tissue from post mortem human AD brain.
Up to 0.5 g of plaque-bearing cortex without meninges was homogenized using a DIAX 900 homogenizer (Heudolph and Co, Kelheim, Germany) or other suitable device for three 30-second periods at full speed in 2 ml of ice-cold phosphate-buffered saline, pH 7.4. To obtain the phosphate-buffered saline-extractable fraction, the homogenate was centrifuged at 100,000×g for 30 min and the supernatant removed. Alternatively, the tissue was freeze dried then pulverised to form a powder which was then weighed out into aliquots for extraction as above. Supernatant, either freeze-dried and resuspended or in unconcentrated form, was dissolved in 200 μl of Tris-Tricine sodium dodecyl sulfate (SDS) sample buffer pH 8.3 containing 8% SDS, 10% 2-mercaptoethanol. Aliquots (10 μl) were then boiled for 10 minutes before SDS-polyacrylamide gel electrophoresis. The insoluble fraction of the cortical samples was obtained by resuspending the initial pelleted sample in 1 ml of phosphate-buffered saline. A 50-μl aliquot of this suspension was then boiled in […] of sample buffer as above.
Tris-Tricine polyacrylamide gel electrophoresis was performed by loading appropriately diluted samples on to 10% to 20% gradient gels (Novex, San Diego, Calif.) followed by transfer on to 0.2-μm nitrocellulose membrane (Bio-Rad, Hercules, Calif.). Aβ was detected by using monoclonal antibody W02, which detects residues 5 through 8, […] (or another suitable antibody) in conjunction with horseradish peroxidase-conjugated rabbit anti-mouse IgG (Dako, Denmark), and visualized by using enhanced chemiluminescence (eg ECL; Amersham Life Science, Buckinghamshire, UK). Each gel included three lanes containing 0.5, 1, and 2 ng of synthetic Aβ40 (Keck Laboratory, Yale University, New Haven, Conn.) as reference standards.
Blot films were scanned by using a suitable imaging system such as the UVP gel documentation system, and densitometry performed using suitable software, eg UVP Labworks. The dynamic range of the film/scanner was determined by using a step tablet (No. 911ST600, Kodak, Rochester N.Y.), a calibrated film exposed by the manufacturer to provided steps of known increasing intensity. The quantifiable range of signal intensity for densitometric analysis of the mono- and dimeric Aβ bands was based on the comparison with a curve obtained by scanning and densitometry of the step tablet.
All samples were analysed at least twice, and gel loadings and dilutions were adjusted to fit within the quantifiable region of the standard curve. […] The insoluble Aβ being comprised of the pelletable fraction derived from the insoluble amyloid plaque from the above cortical samples and the soluble fraction comprising monomeric and/or oligomeric soluble Aβ.

Neuronal cortical cells = experiment: Assay for test compound cytoxicity, MTS (Assay 3(d)); assay type: cell-based, mouse
Description: (§1) Media was then replaced with Neurobasal media (Invitrogen Life Technologies) and B27 supplements (Invitrogen Life Technologies). Cultures were maintained at 37° C. in 5% CO2. Prior to experimentation, the culture medium was replaced with Neurobasal media and B27 minus antioxidants (Invitrogen Life Technologies).
Cell viability is determined using the MTS assay. Culture medium is […] replaced with fresh neurobasal medium plus B27 supplements minus antioxidants. 1/10th volume MTS solution (Cell Titre 96 Aqueous One, Promega Corporation) and incubated at 37° C., 2 hrs. 200 microliter aliquots are measured with a spectrophotometer at 560 nm.
(d) Assay for Test Compound Cytoxicity
Neuronal cortical cells were cultured for five days as per Assay 2 in NB media and B27 supplement.
On day six the test compounds were added to the neuronal cell cultures in NB media and B27 supplement minus antioxidants.
Test compounds were dissolved in 100% DMSO to a concentration of 2.5 mM (10 mM if excess compound was weighed out per vial—then diluted to 2.5 mM). […] Test compounds were not added directly to cells, instead they were added to a 48 well ‘Drug Plate’ as comprised below:
(§2) The Drug Plate was incubated at 37° C. for 15 mins. 200 ul of each well was added in triplicate to the corresponding cell plate. The cell plate was incubated at 37 C, for 4 days.
On completion of the assay, 1/10 volume MTS was added per well of plate (ie 25 ul/250 ul). The plates were incubated at 37 C for 2 hrs, and then absorbance was read at 560 nm.

[2] = tested on: Neuronal cortical cells treated with Aβ1-42; experiment: Assay for Aβ neurotoxicity and Aβ neuroprotection (Assay 3(c)); assay type: cell-based, mouse; conditions: 20 uM Aβ1-42, 4 days, MTS
Description: as §1
(c) Assay for Aβ Neurotoxicity and Aβ Neuroprotection
Neuronal cortical cells were cultured for five days as per Assay 2. On day six the neurobasal (NB) media (Invitrogen Life Technologies) and B27 supplement (Invitrogen Life Technologies) were replaced with NB media and B27 supplement (no antioxidants). On day six, test compounds were individually added to the neuronal cell cultures:
Aβ was initially dissolved in 20 mM NaOH to a concentration of 1 mM and sonicated for 5 minutes. The peptide was then diluted in H2O and 10×PBS to a final concentration of 200 uM Aβ in 1×PBS. The peptide was again sonicated for 5 minutes and then spun at 14000 rpm for 5 min and transferred to a fresh tube.
The test compounds were dissolved in 100% DMSO to a concentration of 2.5 mM (10 mM if excess compound was weighed out per vial—then diluted to 2.5 mM). […] Test compounds were not added directly to cells, instead they were added to a 48 well ‘Drug Plate’ as comprised below:
as §2
On the 4th day after treating the cells the assay is completed by adding MTS to the cells.

[3] = target: T1, hydrogen peroxide generation by Aβ in the presence of copper (Homo sapiens, UniProt P05067); experiment: Fluorometric H2O2 assay (Assay 1); assay type: biochemical; conditions: Aβ 1-42 with Cu-Gly, DCF/HRP, 37 C 60 min; several values in one cell = repeat determinations; read-out: Peroxide IC50
T1 construct: The reaction solutions contained Aβ 1-42 at concentrations in the range of 50 nM to 1 μM
T1 sequence (P05067 672-713 limits assumed): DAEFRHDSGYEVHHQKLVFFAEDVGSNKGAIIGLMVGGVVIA
Description: Assay 1. Fluorometric H2O2 Assay
A fluorometric assay was used to test the ability of a test compound to inhibit hydrogen peroxide generation by Aβ in the presence of copper based on dichlorofluoroscein diacetate (DCF; Molecular Probes, Eugene Oreg.). The DCF solution (5 mM) in 100% dimethyl sulphoxide (previously purged with argon for 2 hr at 20° C.) was deacetylated in the presence of 0.25M NaOH for 30 min and neutralised at pH 7.4 to a final concentration of 1 mM. Horseradish peroxidase (HRP) stock solution was prepared to 1 μM at pH 7.4. The reactions were carried out in PBS, pH 7.4 in a 96 well plate (total volume=250 μl/well). The reaction solutions contained Aβ 1-42 at concentrations in the range of 50 nM to 1 μM, copper-glycine chelate (Cu-Gly), was prepared by adding CuCl2 to glycine in the ratio of 1:6 and added to the Aβ in the proportion 2Cu-Gly: 1Aβ), reducing agents including dopamine (5 μM) or ascorbic acid, deacetylated DCF 100 μM, and HRP, 0.1 μM. […] The reaction mixture was incubated at 37 C for 60 min. […] H2O2 concentration may be established by comparing fluorescence with the H2O2 standards. Inhibition of AB H2O2 production was assayed by including a given concentration of test compound(s) in the test wells.

[4] = solubilising plaques relative to PBS
[5] = BL6J×129sv, mouse, 4 days, 1 uM
[6] = BL6J×129sv, mouse, 4 days, 10 uM

| SMILES | BAS Score [1, 4] | Test Compound Cytoxicity 0.1 um (Neuronal cortical cells; BL6J×129sv, mouse, 4 days) | Test Compound Cytoxicity 1 uM (Neuronal cortical cells; [5]) | Test Compound Cytoxicity 10 uM (Neuronal cortical cells; [6]) | % inhibition Abeta toxicity [2] | IC50 [3] | BAS Score [1] | Cell viability (% viable cells, MTS) (Neuronal cortical cells; 1 uM, 4 days, in %) | Viable 10 uM (Neuronal cortical cells; 10 uM test compound, repeated lines = repeat determinations, in %) | Cell viability (% viable cells, MTS) (Neuronal cortical cells; 10 uM, 4 days, in %) | Cell viability (% viable cells, MTS) (Neuronal cortical cells; 0.1 um, 4 days) | Viable 10 uM (Neuronal cortical cells; [6]) |
| --- | --- | --- | --- | --- | --- | --- | --- | --- | --- | --- | --- | --- |
| Oc1c(I)cc(Cl)c2cccnc12 [compound 1, clioquinol, reference compound] | ++ | 78% | 90 | 77 | 16% | 400 to 500 nM | – | – | – | – | – | – |
| Oc1cccc2cccnc12 [compound 42] | – | – | – | – | 14% | – | + | 87 | 97.66 | 79 | 90% | – |
| Cc1cc(C)c2cccnc2c1O [compound 59] | + | 89% | 97 | 55 | 22% | – | – | – | – | – | – | – |
| Oc1c(Br)cc(-c2cc(F)cc(F)c2)c2cccnc12 [compound 853] | + | 93% | 79 | 39 | 31% | – | – | – | – | – | – | 94.79 |
| Oc1c(-c2ccccc2C(F)(F)F)cc(Cl)c2cccnc12 [compound 864] | + | 100% | 88 | 37 | 13% | – | – | – | – | – | – | 93.12 |
| Oc1ccccc1-c1cc(Cl)c2cccnc2c1O [compound 947] | + | 100% | 94 | 51 | 3% | – | – | – | – | – | – | 70.4 |
| NCc1ccc2cccc(O)c2n1 [compound 968] | ++ | 103% | 87 | 82 | 6% | – | – | – | – | – | – | 97.12 |
| O/N=C/c1ccc2cccc(O)c2n1 [compound 969, 8-Hydroxy-quinoline-2-carboxaldehyde Oxime] | + | 91% | 92 | 90 | 2% | – | – | – | – | – | – | 94.55 |
| Nc1ccccc1NC(=O)c1cc(O)c2cccc(O)c2n1 [compound 986] | + | 96% | 85 | 60 | 7% | – | – | – | – | – | – | 81.73 |
| O=C(CNC(=O)c1cc(O)c2cccc(O)c2n1)NCCc1c[nH]cn1 [compound 987] | + | 92% | 90 | 87 | 5% | – | – | – | – | – | – | 89.03 |
| CN(CCc1ccccn1)Cc1ccc2cccc(O)c2n1 [compound 990] | + | 95% | 88 | 57 | 18% | – | – | – | – | – | – | 57.45 |
| Oc1cccc2ccc(-c3ccccn3)nc12 [compound 1006] | ++ | – | 92 | 52 | 7% | – | – | – | – | – | – | – |
| CC(=O)NC(=O)c1ccc2cccc(O)c2n1 [compound 1021] | – | – | 93 | 81 | 1% | 270 nM | – | – | – | – | – | – |
| O/N=C/c1ccc2c(Cl)cc(Cl)c(O)c2n1 [compound 1031] | – | – | 85 | 81 | 8% | 760 nM | – | – | – | – | – | – |
| CO/N=C/c1ccc2c(Cl)cc(Cl)c(O)c2n1 [compound 1032] | – | – | 83 | 42 | −2% | 1000 nM | – | – | – | – | – | – |
| NC(=O)c1ccc2c(Cl)cc(Cl)c(O)c2n1 [compound 1037] | – | – | 88 | 87 | 4% | > 10000 nM | – | – | – | – | – | – |
| O=C(O)c1ccc2c(Cl)cc(Cl)c(O)c2n1 [compound 1039] | – | – | 94 | 87 | 9% | > 10000 nM | – | – | – | – | – | – |
| CN(c1ccccn1)c1ccc2c(Cl)cc(Cl)c(O)c2n1 [compound 1056, 5,7-Dichloro-8-hydroxy-2-(methyl-pyridin-2-yl-amino)-quinoline] | – | – | 96.44 | 68.25 | 39% | 690 nM | – | – | – | – | – | 68.25 |
| Oc1c(Cl)cc(-c2cccnc2)c2cccnc12 [compound 1057, 7-chloro-5-(pyridin-3-yl)-quinolin-8-ol] | – | – | 101.84 | 95.02 | 4% | 430 nM | – | – | – | – | – | 95.02 |
| Oc1c(Cl)cc(Cl)c2cc(Cl)cnc12 [compound 1058, 3,5,7-trichloro-8-hydroxyquinoline] | – | – | 82.47 | 54.60 | 30% | 680 nM | – | – | – | – | – | 54.60 |
